Here are results for one compound from article PMC2151634 (The Journal of General Physiology, 2007).

The term EC50 denotes the concentration at which the effect is half-maximal. Low values mean greater potency, high ones weaker potency.

This assay deals with T1, P2X2 receptor (Rattus norvegicus, UniProt P49653).
T1 sequence (P49653 1-472): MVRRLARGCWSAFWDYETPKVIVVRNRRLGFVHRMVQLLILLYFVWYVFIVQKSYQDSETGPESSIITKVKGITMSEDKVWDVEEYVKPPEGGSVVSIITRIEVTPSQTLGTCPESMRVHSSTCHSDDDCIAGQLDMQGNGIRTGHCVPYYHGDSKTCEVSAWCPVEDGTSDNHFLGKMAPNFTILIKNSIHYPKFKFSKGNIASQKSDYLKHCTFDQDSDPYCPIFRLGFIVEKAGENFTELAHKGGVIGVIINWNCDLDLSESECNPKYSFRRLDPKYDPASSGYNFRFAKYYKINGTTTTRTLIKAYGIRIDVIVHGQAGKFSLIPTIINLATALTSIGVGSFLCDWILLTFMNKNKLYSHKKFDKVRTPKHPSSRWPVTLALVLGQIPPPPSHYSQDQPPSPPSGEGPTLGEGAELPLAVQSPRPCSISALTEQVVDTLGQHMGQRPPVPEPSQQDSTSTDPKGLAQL
Kind of assay: outside-out patch clamp, peak current, 2-s ATP pulses. The format is cell-based. (Patch clamp records ionic current or voltage across a cell membrane.)

`Nc1ncnc2c1ncn2[C@@H]1O[C@H](COP(=O)(O)OP(=O)(O)OP(=O)(O)O)[C@@H](O)[C@H]1O` [ATP] came in with a concentration for a half-maximal effect (EC50) of 9.8 µM. That is a single-digit micromolar value.
